The structures appear in SMILES notation. Activity calls are given as the source filed them. The rule behind the calls is not given here.

In one data set the test system is A549. As to the kind of experiment: Antiproliferative activity against human A549 cells after 24 hrs by MTT assay. The class given is functional, cell-based. To be noted: A549, 24 h.
In turn, `COc1ccc(/C=C\c2cc(OC)c(OC)c(OC)c2)cc1O` [COMBRETASTATIN A4] came in with an IC50 of 0.16 µM.

For `O=S(=O)(c1ccccc1)n1c(-c2cn(-c3ccccc3)nc2-c2ccc(F)cc2)nc2ccccc21`, the IC50 was determined as 0.55 µM.

In the case of `FC(F)(F)c1ccc(-c2nn(-c3ccccc3)cc2-c2nc3ccccc3[nH]2)cc1`, the IC50 turned out to be 3.62 µM.

Take `O=S(=O)(c1ccc(Cl)cc1)n1c(-c2cn(-c3ccccc3)nc2-c2ccc(C(F)(F)F)cc2)nc2ccccc21`: the IC50 amounted to 2.56 µM.

Consider `COc1ccc(S(=O)(=O)n2c(-c3cn(-c4ccccc4)nc3-c3ccc(F)cc3)nc3ccccc32)cc1`, for which the midpoint of inhibition, the IC50, lay at 0.35 µM.

In turn, `Cc1ccc(-c2nn(-c3ccccc3)cc2-c2nc3ccccc3n2S(=O)(=O)c2ccc(Br)cc2)cc1` showed an IC50 of 1.86 µM.

`O=S(=O)(c1ccc(Br)cc1)n1c(-c2cn(-c3ccccc3)nc2-c2ccc(C(F)(F)F)cc2)nc2ccccc21` had an IC50 of 1.69 µM.

Turning to `O=S(=O)(c1ccc(Br)cc1)n1c(-c2cn(-c3ccccc3)nc2-c2ccc(F)cc2)nc2ccccc21`, the IC50 worked out at 1.72 µM.

As for `O=S(=O)(c1ccc(F)cc1)n1c(-c2cn(-c3ccccc3)nc2-c2ccc(F)cc2)nc2ccccc21`, the IC50 turned out to be 2.37 µM.

For a further data set, the system named is HeLa. In words: Antiproliferative activity against human HeLa cells after 24 hrs by MTT assay. The class given is functional, cell-based.
Settings: not given
Consider `COc1ccc(/C=C\c2cc(OC)c(OC)c(OC)c2)cc1O` [COMBRETASTATIN A4], for which the IC50 was determined as 0.24 µM.

For the compound `O=S(=O)(c1ccccc1)n1c(-c2cn(-c3ccccc3)nc2-c2ccc(F)cc2)nc2ccccc21`, the IC50 turned out to be 0.68 µM.

The compound `FC(F)(F)c1ccc(-c2nn(-c3ccccc3)cc2-c2nc3ccccc3[nH]2)cc1` yielded an IC50 of 4.67 µM.

`O=S(=O)(c1ccc(Cl)cc1)n1c(-c2cn(-c3ccccc3)nc2-c2ccc(C(F)(F)F)cc2)nc2ccccc21`: the IC50 came to 3.06 µM.

`COc1ccc(S(=O)(=O)n2c(-c3cn(-c4ccccc4)nc3-c3ccc(F)cc3)nc3ccccc32)cc1` displayed an IC50 of 0.39 µM.

Regarding `Cc1ccc(-c2nn(-c3ccccc3)cc2-c2nc3ccccc3n2S(=O)(=O)c2ccc(Br)cc2)cc1`, the IC50 is 2.34 µM.

The compound `O=S(=O)(c1ccc(Br)cc1)n1c(-c2cn(-c3ccccc3)nc2-c2ccc(C(F)(F)F)cc2)nc2ccccc21` returned an IC50 of 1.86 µM.

The compound `O=S(=O)(c1ccc(Br)cc1)n1c(-c2cn(-c3ccccc3)nc2-c2ccc(F)cc2)nc2ccccc21` came in with an IC50 of 2.04 µM.

Turning to `O=S(=O)(c1ccc(F)cc1)n1c(-c2cn(-c3ccccc3)nc2-c2ccc(F)cc2)nc2ccccc21`, the IC50 amounted to 2.44 µM.

A further data set deals with HepG2. As to the kind of experiment: Antiproliferative activity against human HepG2 cells after 24 hrs by MTT assay. The class given is functional, cell-based. To be noted: HepG2, 24 h.
`COc1ccc(/C=C\c2cc(OC)c(OC)c(OC)c2)cc1O` [COMBRETASTATIN A4]: half-maximal inhibition (IC50) was put at 0.33 µM.

The compound `O=S(=O)(c1ccccc1)n1c(-c2cn(-c3ccccc3)nc2-c2ccc(F)cc2)nc2ccccc21` displayed a concentration for half-maximal inhibition (IC50) of 0.72 µM.

As for `FC(F)(F)c1ccc(-c2nn(-c3ccccc3)cc2-c2nc3ccccc3[nH]2)cc1`, it took 6.03 µM to reach half-maximal inhibition (IC50).

`O=S(=O)(c1ccc(Cl)cc1)n1c(-c2cn(-c3ccccc3)nc2-c2ccc(C(F)(F)F)cc2)nc2ccccc21` had an IC50 of 3.93 µM.

On to `COc1ccc(S(=O)(=O)n2c(-c3cn(-c4ccccc4)nc3-c3ccc(F)cc3)nc3ccccc32)cc1`, for which the IC50 came to 0.47 µM.

For the compound `Cc1ccc(-c2nn(-c3ccccc3)cc2-c2nc3ccccc3n2S(=O)(=O)c2ccc(Br)cc2)cc1`, the IC50 worked out at 3.04 µM.

Compound `O=S(=O)(c1ccc(Br)cc1)n1c(-c2cn(-c3ccccc3)nc2-c2ccc(C(F)(F)F)cc2)nc2ccccc21` had an IC50 of 2.16 µM.

Regarding `O=S(=O)(c1ccc(Br)cc1)n1c(-c2cn(-c3ccccc3)nc2-c2ccc(F)cc2)nc2ccccc21`, the IC50 is 2.55 µM.

With `O=S(=O)(c1ccc(F)cc1)n1c(-c2cn(-c3ccccc3)nc2-c2ccc(F)cc2)nc2ccccc21`, the IC50 was 3.52 µM.

The next data set relates to MCF7. As to the kind of experiment: Antiproliferative activity against human MCF7 cells after 24 hrs by MTT assay. The data set is classed as functional, cell-based. To be noted: MCF7, 24 h.
As to `COc1ccc(/C=C\c2cc(OC)c(OC)c(OC)c2)cc1O` [COMBRETASTATIN A4], the IC50 was 0.18 µM.

For `O=S(=O)(c1ccccc1)n1c(-c2cn(-c3ccccc3)nc2-c2ccc(F)cc2)nc2ccccc21`, the IC50 was determined as 0.69 µM.

For `FC(F)(F)c1ccc(-c2nn(-c3ccccc3)cc2-c2nc3ccccc3[nH]2)cc1`, the midpoint of inhibition, the IC50, lay at 6.33 µM.

With `O=S(=O)(c1ccc(Cl)cc1)n1c(-c2cn(-c3ccccc3)nc2-c2ccc(C(F)(F)F)cc2)nc2ccccc21`, the IC50 came to 4.32 µM.

Take `COc1ccc(S(=O)(=O)n2c(-c3cn(-c4ccccc4)nc3-c3ccc(F)cc3)nc3ccccc32)cc1`: the IC50 was 0.53 µM.

Compound `Cc1ccc(-c2nn(-c3ccccc3)cc2-c2nc3ccccc3n2S(=O)(=O)c2ccc(Br)cc2)cc1` registered an IC50 of 3.16 µM.

Regarding `O=S(=O)(c1ccc(Br)cc1)n1c(-c2cn(-c3ccccc3)nc2-c2ccc(C(F)(F)F)cc2)nc2ccccc21`, half-maximal inhibition (IC50) required 2.47 µM.

Take `O=S(=O)(c1ccc(Br)cc1)n1c(-c2cn(-c3ccccc3)nc2-c2ccc(F)cc2)nc2ccccc21`: the IC50 amounted to 2.63 µM.

With `O=S(=O)(c1ccc(F)cc1)n1c(-c2cn(-c3ccccc3)nc2-c2ccc(F)cc2)nc2ccccc21`, the IC50 worked out at 3.67 µM.

A further data set concerns the target T1, Tubulin (Bos taurus) (UniProt Q6B856+Q862L2+Q862F3). As to the kind of experiment: Inhibition of [3H]colchicine binding to bovine brain tubulin at 5 uM.
Settings: not given
For `O=S(=O)(c1ccccc1)n1c(-c2cn(-c3ccccc3)nc2-c2ccc(F)cc2)nc2ccccc21`, the inhibition is 62%.

Take `FC(F)(F)c1ccc(-c2nn(-c3ccccc3)cc2-c2nc3ccccc3[nH]2)cc1`: the inhibition is 44%.

For the compound `O=S(=O)(c1ccc(Cl)cc1)n1c(-c2cn(-c3ccccc3)nc2-c2ccc(C(F)(F)F)cc2)nc2ccccc21`, the inhibition came out at 40%.

As to `COc1ccc(S(=O)(=O)n2c(-c3cn(-c4ccccc4)nc3-c3ccc(F)cc3)nc3ccccc32)cc1`, the inhibition turned out to be 77%.

For the compound `Cc1ccc(-c2nn(-c3ccccc3)cc2-c2nc3ccccc3n2S(=O)(=O)c2ccc(Br)cc2)cc1`, the inhibition was 48%.

For `O=S(=O)(c1ccc(Br)cc1)n1c(-c2cn(-c3ccccc3)nc2-c2ccc(C(F)(F)F)cc2)nc2ccccc21`, the inhibition came out at 52%.

For the compound `O=S(=O)(c1ccc(Br)cc1)n1c(-c2cn(-c3ccccc3)nc2-c2ccc(F)cc2)nc2ccccc21`, the inhibition came to 51%.

For `O=S(=O)(c1ccc(F)cc1)n1c(-c2cn(-c3ccccc3)nc2-c2ccc(F)cc2)nc2ccccc21`, the inhibition came to 48%.

For a further data set, the target named is T1, Tubulin (Bos taurus). In words: Inhibition of vinblastine binding to bovine brain tubulin at 5 uM.
Settings: not given
For `O=S(=O)(c1ccccc1)n1c(-c2cn(-c3ccccc3)nc2-c2ccc(F)cc2)nc2ccccc21`, the inhibition stood at 0.05%.

As for `FC(F)(F)c1ccc(-c2nn(-c3ccccc3)cc2-c2nc3ccccc3[nH]2)cc1`, the inhibition is -0.03 to 2.1%.

On to `O=S(=O)(c1ccc(Cl)cc1)n1c(-c2cn(-c3ccccc3)nc2-c2ccc(C(F)(F)F)cc2)nc2ccccc21`, for which the inhibition was 0.73%.

Consider `COc1ccc(S(=O)(=O)n2c(-c3cn(-c4ccccc4)nc3-c3ccc(F)cc3)nc3ccccc32)cc1`, for which the inhibition was determined as 2.98%.

As to `Cc1ccc(-c2nn(-c3ccccc3)cc2-c2nc3ccccc3n2S(=O)(=O)c2ccc(Br)cc2)cc1`, the inhibition was -0.38 to 1.4%.

As for `O=S(=O)(c1ccc(Br)cc1)n1c(-c2cn(-c3ccccc3)nc2-c2ccc(C(F)(F)F)cc2)nc2ccccc21`, the inhibition is -0.07 to 2.1%.

In the case of `O=S(=O)(c1ccc(Br)cc1)n1c(-c2cn(-c3ccccc3)nc2-c2ccc(F)cc2)nc2ccccc21`, the inhibition was found to be 3.02%.

`O=S(=O)(c1ccc(F)cc1)n1c(-c2cn(-c3ccccc3)nc2-c2ccc(F)cc2)nc2ccccc21`: the inhibition was 1.32%.

System in another data set: not listed separately
In words: Cytotoxicity against HEK293T cells after 24 hrs by MTT assay. The data set is classed as cell-based, HEK-293T. To be noted: human.
`COc1ccc(/C=C\c2cc(OC)c(OC)c(OC)c2)cc1O` [COMBRETASTATIN A4] had a CC50 at 24 h of 162 µM.

With `O=S(=O)(c1ccccc1)n1c(-c2cn(-c3ccccc3)nc2-c2ccc(F)cc2)nc2ccccc21`, half-maximal cytotoxicity (CC50 at 24 h) was put at 96.3 µM.

`FC(F)(F)c1ccc(-c2nn(-c3ccccc3)cc2-c2nc3ccccc3[nH]2)cc1` displayed a CC50 at 24 h of 167 µM.

Compound `O=S(=O)(c1ccc(Cl)cc1)n1c(-c2cn(-c3ccccc3)nc2-c2ccc(C(F)(F)F)cc2)nc2ccccc21` displayed a CC50 at 24 h of 75.3 µM.

With `COc1ccc(S(=O)(=O)n2c(-c3cn(-c4ccccc4)nc3-c3ccc(F)cc3)nc3ccccc32)cc1`, the midpoint of cytotoxicity, the CC50 at 24 h, lay at 37.3 µM.

`Cc1ccc(-c2nn(-c3ccccc3)cc2-c2nc3ccccc3n2S(=O)(=O)c2ccc(Br)cc2)cc1` gave a CC50 at 24 h of 159 µM.

In the case of `O=S(=O)(c1ccc(Br)cc1)n1c(-c2cn(-c3ccccc3)nc2-c2ccc(C(F)(F)F)cc2)nc2ccccc21`, the CC50 at 24 h came to 185 µM.

Take `O=S(=O)(c1ccc(Br)cc1)n1c(-c2cn(-c3ccccc3)nc2-c2ccc(F)cc2)nc2ccccc21`: the CC50 at 24 h was found to be 239 µM.

`O=S(=O)(c1ccc(F)cc1)n1c(-c2cn(-c3ccccc3)nc2-c2ccc(F)cc2)nc2ccccc21` gave a CC50 at 24 h of 218 µM.

System in a further data set: not listed separately
As to the kind of experiment: Cytotoxicity against mouse primary hepatocytes after 24 hrs by MTT assay. The data set is classed as cell-based, Hepatocyte.
Settings: not given
Take `COc1ccc(/C=C\c2cc(OC)c(OC)c(OC)c2)cc1O` [COMBRETASTATIN A4]: the midpoint of cytotoxicity, the CC50 at 24 h, lay at 178 µM.

Take `O=S(=O)(c1ccccc1)n1c(-c2cn(-c3ccccc3)nc2-c2ccc(F)cc2)nc2ccccc21`: it took 231 µM to reach half-maximal cytotoxicity (CC50 at 24 h).

For `FC(F)(F)c1ccc(-c2nn(-c3ccccc3)cc2-c2nc3ccccc3[nH]2)cc1`, the CC50 at 24 h is 159 µM.

Compound `O=S(=O)(c1ccc(Cl)cc1)n1c(-c2cn(-c3ccccc3)nc2-c2ccc(C(F)(F)F)cc2)nc2ccccc21` gave a CC50 at 24 h of 173 µM.

`COc1ccc(S(=O)(=O)n2c(-c3cn(-c4ccccc4)nc3-c3ccc(F)cc3)nc3ccccc32)cc1` displayed a CC50 at 24 h of 105 µM.

For `Cc1ccc(-c2nn(-c3ccccc3)cc2-c2nc3ccccc3n2S(=O)(=O)c2ccc(Br)cc2)cc1`, the CC50 at 24 h was over 300 µM.

The compound `O=S(=O)(c1ccc(Br)cc1)n1c(-c2cn(-c3ccccc3)nc2-c2ccc(C(F)(F)F)cc2)nc2ccccc21` registered a CC50 at 24 h of 167 µM.

In turn, `O=S(=O)(c1ccc(Br)cc1)n1c(-c2cn(-c3ccccc3)nc2-c2ccc(F)cc2)nc2ccccc21` yielded a CC50 at 24 h of over 300 µM.

`O=S(=O)(c1ccc(F)cc1)n1c(-c2cn(-c3ccccc3)nc2-c2ccc(F)cc2)nc2ccccc21` registered a CC50 at 24 h of 174 µM.

The next data set concerns Rattus norvegicus. As to the kind of experiment: Antitumor activity against rat hepatoma H22 cells implanted in mouse assessed as reduction in tumor volume at 3 mg/kg, ip measured after 8 to 28 days. The data set is classed as functional, organism-based.
Settings: not given
Consider `COc1ccc(/C=C\c2cc(OC)c(OC)c(OC)c2)cc1O` [COMBRETASTATIN A4], for which the result was Active.

System in the next data set: not listed separately
In words: Toxicity in mouse xenografted with rat H22 cells assessed as weight loss at 3 mg/kg, ip measured after 28 days. The class given is organism-based. To be noted: in vivo, 672 h.
Turning to `COc1ccc(/C=C\c2cc(OC)c(OC)c(OC)c2)cc1O` [COMBRETASTATIN A4], the Activity result is listed as “Toxic”.

These data come from ChEMBL document CHEMBL4330117, “Synthesis, biological evaluation and molecular docking of benzimidazole grafted benzsulfamide-containing pyrazole ring derivatives as novel tubulin polymerization inhibitors” (Bioorg Med Chem, 2019).
